Assay results from patent US20150307938A1, “METHOD TO IDENTIFY A NOVEL CLASS OF IMMUNOLOGIC ADJUVANTS” (Lancell, L.L.C., priority 2011, published 2015).

Test system: skin
Experiment: Affymetrix microarray of skin, DBP-4 hr and analogs vs. untreated; gene selection by log-2 fold change, Wilcoxon, Kendall tau (Tables 8, 9)
Type: in vivo, mouse
Conditions: DBP-4 hr

CCCCOC(=O)c1ccccc1C(=O)OCCCC [DBP, dibutylphthalate]
DBP Expression: Nr4a2 (NM_013613_at): 7.45 | DBP Expression: Ccl7 (NM_013654_at): 8.86 | DBP Expression: Plk3 (NM_013807_at): 8.72 | DBP Expression: Bcar3 (NM_013867_at): 7.96 | DBP Expression: Clic4 (NM_013885_at): 9.05 | DBP Expression: Rgs1 (NM_015811_at): 7.35 | DBP Expression: Aqp3 (NM_016689_at): 10.49 | DBP Expression: Map3k6 (NM_016693_at): 8.79 | DBP Expression: Krt35 (NM_016880_at): 5.45 | DBP Expression: Ccl20 (NM_016960_at): 11.11 | DBP Expression: Nfil3 (NM_017373_at): 8.13 | DBP Expression: Arc (NM_018790_at): 6.81 | DBP Expression: Cd86 (NM_019388_at): 7.42 | DBP Expression: Nfkb2 (NM_019408_at): 8.26 | DBP Expression: Ramp3 (NM_019511_at): 7.94 | DBP Expression: Pde4b (NM_019840_at): 8.96 | DBP Expression: Clec7a (NM_020008_at): 9.14 | DBP Expression: Angptl4 (NM_020581_at): 9.51 | DBP Expression: Pmaip1 (NM_021451_at): 8.41 | DBP Expression: Gpr35 (NM_022320_at): 5.63 | DBP Expression: Ptges (NM_022415_at): 8.31 | DBP Expression: Cxcl16 (NM_023158_at): 8.99 | DBP Expression: Zfp593 (NM_024215_at): 6.14 | DBP Expression: Pqlc1 (NM_025861_at): 10.20 | DBP Expression: Efhd2 (NM_025994_at): 10.57 | DBP Expression: Slc39a8 (NM_026228_at): 6.13 | DBP Expression: Dusp6 (NM_026268_at): 10.59 | DBP Expression: 1810011010Rik (NM_026931_at): 9.68 | DBP Expression: Pvr (NM_027514_at): 6.71 | DBP Expression: 1810055G02Rik (NM_028077_at): 8.40 | DBP Expression: Rnf19b (NM_029219_at): 8.99 | DBP Expression: Slc10a6 (NM_029415_at): 9.28 | DBP Expression: Abcc3 (NM_029600_at): 7.87 | DBP Expression: 1600029D21Rik (NM_029639_at): 10.16 | DBP Expression: Klrb 1b (NM_030599_at): 6.58 | DBP Expression: Il6 (NM_031168_at): 6.41 | DBP Expression: Bcl3 (NM_033601_at): 8.92 | DBP Expression: Epgn (NM_053087_at): 9.09 | DBP Expression: Otud7a (NM_130880_at): 7.23 | DBP Expression: Ier3 (NM_133662_at): 11.24 | DBP Expression: Prss22 (NM_133731_at): 7.96 | DBP Expression: Errfi1 (NM_133753_at): 10.14 | DBP Expression: Uap1 (NM_133806_at): 9.16 | DBP Expression: Stk17b (NM_133810_at): 9.70 | DBP Expression: Havcr2 (NM_134250_at): 7.20 | DBP Expression: Cytip (NM_139200_at): 9.90 | DBP Expression: Slc39a14 (NM_144808_at): 6.31 | DBP Expression: Cd207 (NM_144943_at): 10.32 | DBP Expression: Pyy (NM_145435_at): 9.16 | DBP Expression: Deptor (NM_145470_at): 9.12 | DBP Expression: Smox (NM_145533_at): 8.07 | DBP Expression: Arid5a (NM_145996_at): 7.61 | DBP Expression: Slc25a25 (NM_146118_at): 8.10 | DBP Expression: Kctd11 (NM_153143_at): 9.35 | DBP Expression: Dusp7 (NM_153459_at): 8.85 | DBP Expression: Adamts4 (NM_172845_at): 6.21 | DBP Expression: Fam43a (NM_177632_at): 9.07 | DBP Expression: Coro2a (NM_178893_at): 7.02 | DBP Expression: Gyk (NM_212444_at): 9.63 | DBP Expression: Il4ra (NM_001008700_at): 7.47 | DBP Expression: Il1rl1 (NM_001025602_at): 8.40 | DBP Expression: Zbtb16 (NM_001033324_at): 6.93 | DBP Expression: Deptor (NM_001037937_at): 9.12 | DBP Expression: Cd44 (NM_001039150_at): 9.82 | DBP Expression: Cd44 (NM_001039151_at): 9.82 | DBP Expression: Irs2 (NM_001081212_at): 8.35 | DBP Expression: Pprc1 (NM_001081214_at): 8.81 | DBP Expression: Gpr35 (NM_001104529_at): 5.63 | DBP Expression: Crem (NM_001110850_at): 6.91 | DBP Expression: Crem (NM_001110853_at): 6.26 | DBP Expression: Crem (NM_001110854_at): 6.91 | DBP Expression: Crem (NM_001110855_at): 6.91 | DBP Expression: Crem (NM_001110856_at): 6.91 | DBP Expression: Crem (NM_001110857_at): 6.26 | DBP Expression: Crem (NM_001110858_at): 6.26 | DBP Expression: Crem (NM_001110859_at): 6.26 | DBP Expression: Slc39a8 (NM_001135149_at): 6.13 | DBP Expression: Slc39a8 (NM_001135150_at): 6.13 | DBP Expression: Slc39a14 (NM_001135151_at): 6.31 | DBP Expression: Slc39a14 (NM_001135152_at): 6.31 | DBP Expression: Nr4a2 (NM_001139509_at): 7.45 | DBP Expression: Ccl20 (NM_001159738_at): 11.11 | DBP Expression: Slc25a25 (NM_001164357_at): 8.10 | DBP Expression: Slc25a25 (NM_001164358_at): 8.10 | DBP Expression: Pqlc1 (NM_001164420_at): 10.20 | DBP Expression: Pqlc1 (NM_001164421_at): 10.20 | DBP Expression: Pqlc1 (NM_001164422_at): 10.20 | DBP Expression: Coro2a (NM_001164804_at): 7.02 | DBP Expression: Tnfaip3 (NM_001166402_at): 7.22
